Measurements from US8673913B2, “SHP-2 phosphatase inhibitor” (Case Western Reserve University, priority 2009, dated 2014).

Legend:
[1] = tested on: SHP-2 (WT and D61G) in mouse embryonic fibroblasts; assay: in vivo (immunocomplex) phosphatase assay: EGF-induced activation of SHP-2 in embryonic fibroblasts; assay type: cell-based; conditions: 100 μM, last 1 hour; WT and SHP-2D61G/D61G cells
Description: (§1) FIG. 5 illustrates in vivo effects of active compounds on SHP-2 activity and SHP-2-mediated signaling. (A) WT and mutant embryonic fibroblasts derived from activating mutation SHP-2 D61G knock-in mice were starved in serum-free medium overnight and were treated with the indicated compounds in the last 1 hour. Cells were then stimulated with EGF (20 ng/mL) for 10 min. Whole cell lysates were prepared and immunoprecipitated with anti-SHP-2 antibody. Immunoprecipitates were washed and then subjected to the in vitro phosphatase assay as described in the text. (B) Ba/F3 cells were deprived of IL-3 for 8 hours. The cells were treated with the indicated compounds 1 hour prior to the stimulation with IL-3 (2 ng/mL). Cells were harvested after the indicated periods of time. Whole cell lysates were prepared and examined for Erk activation with anti-phospho-Erk immunoblotting. The blot was striped and reprobed with anti-pan Erk antibody to examine protein loading.
For the in vivo phosphatase assay, mouse embryonic fibroblasts were used to assess the activities of the test compounds in inhibiting epidermal growth factor (EGF)-induced activation of SHP-2 catalytic activity. WT and mutant fibroblasts derived from activating mutation of SHP-2 D61G knock-in mice (SHP-2D61G/D61G)10 were starved in serum-free medium overnight and the tested compounds (100 μM) were added in the last 1 hour. […]

[2] = molecular target: T1, SHP-2 PTP domain GST fusion protein (Homo sapiens, UniProt Q06124); assay: fluorescence titration (quenching of SHP-2 fluorescence); assay type: binding; parameters: Purified SHP-2 PTP domain GST-fusion protein was diluted into 20 mM Tris-HCl; made in house; conditions: SHP-2 protein 3 μM, excitation 295 nm
T1 sequence (Q06124 247-517 limits assumed): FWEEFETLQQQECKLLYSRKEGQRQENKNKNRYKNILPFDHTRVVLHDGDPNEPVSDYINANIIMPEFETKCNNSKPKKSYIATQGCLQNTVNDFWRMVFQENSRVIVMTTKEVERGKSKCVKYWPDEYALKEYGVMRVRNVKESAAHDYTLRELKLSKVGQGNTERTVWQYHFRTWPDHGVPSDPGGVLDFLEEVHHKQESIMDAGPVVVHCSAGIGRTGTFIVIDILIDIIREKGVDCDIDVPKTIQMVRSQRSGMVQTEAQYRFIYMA
Description: For all experiments, Purified SHP-2 PTP domain GST-fusion protein was diluted into 20 mM Tris-HCl, pH 7.5. Fluorescence spectra were recorded with a Luminescence Spectrometer LS50 (Perkin-Elmer, Boston, Mass.). Titrations were performed by increasing the test compound concentration while maintaining the SHP-2 protein concentration at 3 μM. Contributions from background fluorescence of the inhibitors were accounted for by subtracting the fluorescence of the inhibitors alone from the of the protein-inhibitor solution. The excitation wavelength was 295 nm and fluorescence was monitored from 360 to 500 nm. All reported fluorescence intensities are relative values and are not corrected for wavelength variations in detector response.
To validate that the active compounds identified were binding directly to the SHP-2 protein, we determined whether the active compounds directly interacted with the SHP-2 PTP domain using fluorescence quenching and taking advantage of the four tryptophans in the PTP domain, with Trp248 located 15 Å from the putative pY+5 pocket and Trp423 located 8 Å from the phosphatase active site. […] Therefore, their binding to SHP-2 protein could not be determined using this measurement. Thus, the fluorescence quenching experiments indicate that at least four active compounds identified do directly bind to SHP-2, thereby leading to their biological activities.

[3] = tested on: Erk activation in Ba/F3 cells; assay: IL-3-induced Erk activation, anti-phospho-Erk immunoblotting; assay type: cell-based, murine; conditions: Ba/F3 cells preincubated 1 hour
Description: as §1
We next tested whether the active compounds are effective in cells. […] Activation of SHP-2 in response to EGF stimulation was determined using the immunocomplex phosphatase assay. Compared to WT SHP-2, catalytic activity of SHP-2 D61G mutant in the mutant cells was increased both at the basal level and following EGF stimulation (FIG. 5A), consistent with previous studies. […]

[4] = tested on: JMML patient bone marrow cells; assay: JMML bone marrow cells cultured with GM-CSF (MTS), FIG. 15; assay type: cell-based; conditions: DMEM with GM-CSF
Description: FIG. 15 illustrates inhibition of growth factor-independent colony formation of myeloid progenitors with SHP-2 activating mutation E76K by active compounds. JMML patient bone marrow cells were harvested from mutant mice with SHP-2 E76K mutation and were cultured in DMEM medium supplemented GM-CSF. DMSO was included at negative controls. Cell numbers were determined using the MTS assay. Shown are the results of a representative compound #324.

quenching of SHP-2 fluorescence [2] | SMILES | EGF-induced activation of SHP-2 [1] | Erk activation by IL-3 [3] | growth of JMML bone marrow cells with GM-CSF (FIG. 15) [4]
strong quenching | NS(=O)(=O)c1ccc(CCNC(=O)c2ccc(Cn3c(=S)[nH]c4ccc(Br)cc4c3=O)cc2)cc1 [#216] | blocked | suppressed | –
strong quenching | Cc1cc(C)c2c(c1)[nH]c1nnc(SCC(=O)NCc3cccs3)nc12 [#220] | blocked | suppressed | –
– | Cc1cc(C)c2[nH]c3nc(SCC(=O)Nc4cccc5ccccc45)nnc3c2c1 [#324] | – | – | inhibition
